Consider two molecules from PMC9223764, “In Vitro Selection and Characterization of HIV-1 Variants with Increased Resistance to LP-40, Enfuvirtide-Based Lipopeptide Inhibitor” (International Journal of Molecular Sciences, 2022).

Where a SMILES comes first, the peptide text is derived from it. The star is where a group is joined. Palmitoyl = CCCCCCCCCCCCCCCC(=O)*

Common to all, as to type: cell-based
In experiment [1] the test system is LP40-V10 pseudovirus (HIV-1 NL4-3 Env mutant). The settings on record: for IC50: LP40-V10 (Env selected at LP-40 20 µM), TZM-bl cells, 48 h, luciferase, mean ± SD, triplicate, repeated three times. The method, then: (§1) To simulate the sequence changes of viral resistance genes under different drug concentration pressures, we constructed the Env genes under different drug concentration pressures in the PCDNA3.1 vector and obtained a series of mutations. […] T20-V 6~12, T20-V 13~14, and T 20-V 15~18 were constructed at concentrations of 200 µM (P21), 400 µM (P24), and 2000 µM (P32), respectively. Similarly, the LP-40 pressure concentrations were 0.3 µM, 8 µM, 20 µM, and 200 µM, respectively, and the constructs were numbered LP40-V 1~5, LP40-V 6~8, LP40-V 9~11, and LP40-V 12~15. Resistance mutations will cause varying levels of damage to the function of the pseudoviral envelope proteins. Here, we explored how serial mutations affect the function of viral envelope proteins. Based on this problem, we performed a single round of quantitative P24-infection experiments, packaging the pseudovirus with a previously constructed series of mutant plasmids. We compared the invasion ability of the HIV-1 wild-type and mutant pseudoviruses toward target cells under the same P24 content (using the invasion capacity of each subtype as 100%).
(§2) The infectivity of HIV Env mutants and the inhibitory activities of membrane fusion inhibitors on mutants in TZM-bl cells were measured using a single-cycle infection assay as described previously. Briefly, the HIV pseudovirus was packed using an Env-coding plasmid, and pSG3ΔEnv was co-transfected into HEK293T cells. pSG3ΔEnv encodes an Env-defective, luciferase-expressing HIV-1 genome. After the pseudoviruses were harvested and filtrated, the amount of pseudoviruses was fixed via P24 antigen, and their infectivity was determined in TZM-bl cells. In order to measure the inhibitory activities of the inhibitors, inhibitors diluted serially 3-fold were mixed with an equal volume of pseudoviruses, and then 100 µL 1 × 10^5/mL TZM-bl cells were added to the mixture and incubated at 37 °C with 5% CO2 for 48 h. After that, TZM-bl cells were lysed using reporter lysis buffer, and IC50 values were calculated according to luciferase activity measured by luciferase assay reagents and a luminescence counter (Promega, Madison, WI, USA).

The test system of experiment [2] is LP40-V12 pseudovirus (HIV-1 NL4-3 Env mutant). The settings on record: for IC50: LP40-V12 (Env selected at LP-40 200 µM), TZM-bl cells, 48 h, luciferase, mean ± SD, triplicate, repeated three times. The method, then: as §1, §2
The test system of experiment [3] is T20-V3 pseudovirus (HIV-1 NL4-3 Env mutant). The settings on record: for IC50: T20-V3 (Env selected at T20 12 µM, P9), TZM-bl cells, 48 h, luciferase, mean ± SD, triplicate, repeated three times. On the procedure:
as §1, §2

Experiment [4] concerns T20-V18 pseudovirus (HIV-1 NL4-3 Env mutant). The settings on record: for IC50: T20-V18 (Env selected at T20 2000 µM, P32), TZM-bl cells, 48 h, luciferase, mean ± SD, triplicate, repeated three times. The method, then: as §1, §2
In experiment [5] the test system is T20-V10 pseudovirus (HIV-1 NL4-3 Env mutant). The settings on record: for IC50: T20-V10 (Env selected at T20 200 µM, P21), TZM-bl cells, 48 h, luciferase, mean ± SD, triplicate, repeated three times. On the procedure: as §1, §2
For experiment [6], the system named is LP40-V1 pseudovirus (HIV-1 NL4-3 Env mutant). The settings on record: for IC50: LP40-V1 (Env selected at LP-40 0.3 µM), TZM-bl cells, 48 h, luciferase, mean ± SD, triplicate, repeated three times. The method, then:
as §1, §2

In experiment [7] the test system is T20-V7 pseudovirus (HIV-1 NL4-3 Env mutant). The settings on record: for IC50: T20-V7 (Env selected at T20 200 µM, P21), TZM-bl cells, 48 h, luciferase, mean ± SD, triplicate, repeated three times. The method, then: as §1, §2
In experiment [8] the test system is T20-V17 pseudovirus (HIV-1 NL4-3 Env mutant). The settings on record: for IC50: T20-V17 (Env selected at T20 2000 µM, P32), TZM-bl cells, 48 h, luciferase, mean ± SD, triplicate, repeated three times. On the procedure: as §1, §2
The subject of experiment [9] is LP40-V9 pseudovirus (HIV-1 NL4-3 Env mutant). The settings on record: for IC50: LP40-V9 (Env selected at LP-40 20 µM), TZM-bl cells, 48 h, luciferase, mean ± SD, triplicate, repeated three times. On the procedure:
as §1, §2

In experiment [10] the test system is T20-V14 pseudovirus (HIV-1 NL4-3 Env mutant). The settings on record: for IC50: T20-V14 (Env selected at T20 400 µM, P24), TZM-bl cells, 48 h, luciferase, mean ± SD, triplicate, repeated three times. On the procedure:
as §1, §2

For experiment [11], the system named is HIV-1 NL4-3 gp41 L33S/V38A/N42T pseudovirus. The settings on record: Table 3; for IC50: L33S/V38A/N42T, TZM-bl cells, 48 h, luciferase, means, triplicate, repeated three times. The method, then: (§3) We selected LP-40-induced drug resistance typical point mutations and combination mutation pseudoviruses to evaluate the current representative membrane fusion inhibitors.
as §2

For experiment [12], the system named is HIV-1 NL4-3 gp41 NDQEEDYN pseudovirus. The settings on record: Table 3; for IC50: NDQEEDYN (E109N, N113D, E119Q, D121E, N125E, S129D, H132Y, S133N), TZM-bl cells, 48 h, luciferase, means, triplicate, repeated three times. The method, then:
as §3, §2

The test system of experiment [13] is HIV-1 NL4-3 gp41 L33S/I37T pseudovirus. The settings on record: Table 3; for IC50: L33S/I37T, TZM-bl cells, 48 h, luciferase, means, triplicate, repeated three times. On the procedure: as §3, §2
Experiment [14] relates to HIV-1 NL4-3 gp41 NDQEEDYN/L33S/V38A/N42T pseudovirus. The settings on record: Table 3; for IC50: NDQEEDYN/L33S/V38A/N42T, TZM-bl cells, 48 h, luciferase, means, triplicate, repeated three times. The method, then: as §3, §2

As to Enfuvirtide, the 50% inhibitory concentration (IC50) (as a rule, the concentration at which inhibition is half-maximal) in [1] worked out at 1260 ± 264 nM; in experiment [2] it was 5.87 ± 0.978 µM; in experiment [3], 78.9 ± 12.1 nM; in experiment [4] it was 6.15 ± 0.475 µM; in experiment [5], 3.34 ± 0.433 µM; in [6] it was 59.8 ± 16.3 nM. The IC50 in experiment [7] turned out to be 2810 ± 458 nM; in experiment [8], 2.89 ± 0.882 µM; in experiment [9], 1270 ± 315 nM; in experiment [10], 4.43 ± 0.967 µM; in experiment [11] it was 4.92 µM; in experiment [12], 62.5 nM. For the same molecule, the IC50 was 5.85 µM in [13] and 4.78 µM in experiment [14].

In the case of `CCCCCCCCCCCCCCCC(=O)NCCCC[C@H](NC(=O)[C@H](CC(=O)O)NC(=O)[C@H](CC(C)C)NC(=O)[C@H](CCC(=O)O)NC(=O)[C@H](CC(C)C)NC(=O)[C@H](CC(C)C)NC(=O)[C@H](CCC(=O)O)NC(=O)[C@H](CCC(N)=O)NC(=O)[C@H](CCC(=O)O)NC(=O)[C@H](CC(N)=O)NC(=O)[C@H](CCCCN)NC(=O)[C@H](CCC(=O)O)NC(=O)[C@H](CCC(N)=O)NC(=O)[C@H](CCC(N)=O)NC(=O)[C@H](CC(N)=O)NC(=O)[C@H](CCC(N)=O)NC(=O)[C@H](CO)NC(=O)[C@H](CCC(=O)O)NC(=O)[C@H](CCC(=O)O)NC(=O)[C@@H](NC(=O)[C@H](CC(C)C)NC(=O)[C@H](CO)NC(=O)[C@H](Cc1c[nH]cn1)NC(=O)[C@@H](NC(=O)[C@H](CC(C)C)NC(=O)[C@H](CO)NC(=O)[C@@H](NC(=O)[C@H](Cc1ccc(O)cc1)NC(C)=O)[C@@H](C)O)[C@@H](C)CC)[C@@H](C)CC)C(N)=O` [LP-40] (Ac-YTSLIHSLIEESQNQQEKNEQELLELDK(Palmitoyl)-NH2), the IC50 in experiment [1] was 2750 ± 634 nM; in experiment [2] it was over 6.25 µM; in [3], 70.5 ± 8.56 nM; in experiment [4] it was over 6.25 µM; in experiment [5], 6.08 ± 1.17 µM; in experiment [6] it was 44.9 ± 4.39 nM. Moreover, the IC50 in [7] stood at 2730 ± 212 nM; in experiment [8], 5.17 ± 1.02 µM; in experiment [9], 2890 ± 431 nM; in experiment [10], 2.9 ± 0.0851 µM; in experiment [11] it was 4.99 µM; in [12], 100 nM. The IC50 in experiment [13] was 2.98 µM; in experiment [14], over 6.25 µM. In addition, the “Fold change in IC50” value in experiment [1] (LP40-V10 relative to WT NL4-3, Table 1) is on record as 92.52 fold; in experiment [2] (LP40-V12 relative to WT NL4-3, Table 1), over 227.43 fold; in experiment [3] (T20-V3 relative to WT NL4-3, Table 1) it was 2.38 fold; in experiment [4] (T20-V18 relative to WT NL4-3, Table 1), over 227.43 fold; in experiment [5] (T20-V10 relative to WT NL4-3, Table 1), 204.88 fold; in experiment [6] (LP40-V1 relative to WT NL4-3, Table 1), 1.51 fold. The “Fold change in IC50” value came to 91.82 fold in experiment [7] (T20-V7 relative to WT NL4-3, Table 1); 174.12 fold in [8] (T20-V17 relative to WT NL4-3, Table 1); 97.22 fold in experiment [9] (LP40-V9 relative to WT NL4-3, Table 1); 97.57 fold in [10] (T20-V14 relative to WT NL4-3, Table 1); 182.67 fold in experiment [11] (L33S/V38A/N42T relative to WT NL4-3); 3.67 fold in experiment [12] (NDQEEDYN relative to WT NL4-3). Further, the entries for the “Fold change in IC50” value in experiment [13] (L33S/I37T relative to WT NL4-3) and in experiment [14] (NDQEEDYN/L33S/V38A/N42T relative to WT NL4-3) were 109.04 fold and over 228.77 fold, respectively.
